Key:
MCF7 [1] = assay: Resistance factor, ratio of IC50 for P-glycoprotein deficient wild type human MCF7 cells to IC50 for multidrug-resistant human NCI/ADR cells; format: functional
[2] = Cytotoxicity against P-glycoprotein deficient wild type human LCC-6 cells after 72 hrs; format: functional, cell-based; conditions: LCC-6, 72 h
[3] = Resistance factor, ratio of IC50 for human LCC-6 cells expressing P-glycoprotein to IC50 for P-glycoprotein deficient wild type human LCC-6 cells; format: functional; set-up: reference not given here
MCF7 [4] = assay: Resistance factor, ratio of IC50 for human MCF7 cells expressing P-glycoprotein to IC50 for P-glycoprotein deficient wild type human MCF7 cells; format: functional
NCI-H460 = assay: Cytotoxicity against human H460 cells after 72 hrs; format: functional, cell-based; conditions: NCI-H460, 72 h
[5] = Cytotoxicity against human LCC-6 cells expressing P-glycoprotein after 72 hrs; format: functional, cell-based; conditions: LCC-6, 72 h
MCF7 [6] = assay: Cytotoxicity against human MCF7 cells expressing P-glycoprotein after 72 hrs; format: functional, cell-based; conditions: MCF7, 72 h
HT-29 = assay: Cytotoxicity against human HT-29 cells after 72 hrs; format: functional, cell-based; conditions: HT-29, 72 h
MCF7 [7] = assay: Cytotoxicity against P-glycoprotein deficient wild type human MCF7 cells after 72 hrs; format: functional, cell-based; conditions: MCF7, 72 h

| SMILES | Ratio (MCF7 [1]) | IC50 [2] | Ratio [3] | Ratio (MCF7 [4]) | IC50 (NCI-H460) | IC50 [5] | IC50 (MCF7 [6]) | IC50 (HT-29) | IC50 (MCF7 [7]) |
| --- | --- | --- | --- | --- | --- | --- | --- | --- | --- |
| CCC(=O)O[C@H]1C(=O)[C@@]2(C)[C@H]([C@H](OC(=O)c3ccccc3)[C@]3(O)C[C@H](OC(=O)[C@H](O)[C@H](C=C(C)C)NC(=O)OC(C)(C)C)C(C)=C1C3(C)C)[C@]1(OC(C)=O)CO[C@@H]1C[C@@H]2O | 22 | – | – | – | – | – | – | – | – |
| COc1cccc(C(=O)O[C@H]2[C@@H]3[C@]4(OC(C)=O)CO[C@@H]4C[C@H](O)[C@@]3(C)C(=O)[C@H](OC(=O)OCc3ccccc3)C3=C(C)[C@@H](OC(=O)[C@H](O)[C@H](C=C(C)C)NC(=O)OC(C)(C)C)C[C@]2(O)C3(C)C)c1 | 7.5 | 1.2 nM | 1.5 | – | – | – | – | – | – |
| CCC(=O)O[C@H]1C(=O)[C@@]2(C)[C@H]([C@H](OC(=O)c3cccc(OC)c3)[C@]3(O)C[C@H](OC(=O)[C@H](O)[C@H](CC(C)C)NC(=O)C4CCCCC4)C(C)=C1C3(C)C)[C@]1(OC(C)=O)CO[C@@H]1C[C@@H]2O | 9.3 | 1 nM | 12 | – | – | – | – | – | – |
| CCC(=O)O[C@H]1C(=O)[C@@]2(C)[C@H]([C@H](OC(=O)c3ccccc3)[C@]3(O)C[C@H](OC(=O)[C@H](O)[C@H](CC(C)C)NC(=O)OC4CCCC4)C(C)=C1C3(C)C)[C@]1(OC(C)=O)CO[C@@H]1C[C@@H]2O | 6.8 | 2.6 nM | 5.4 | – | – | – | – | – | – |
| CCC(=O)O[C@H]1C(=O)[C@@]2(C)[C@H]([C@H](OC(=O)c3cccc(OC)c3)[C@]3(O)C[C@H](OC(=O)[C@H](O)[C@H](CC(C)C)NC(=O)C4CC4)C(C)=C1C3(C)C)[C@]1(OC(C)=O)CO[C@@H]1C[C@@H]2O | 30 | 0.6 nM | 22 | – | – | – | – | – | – |
| CCC(=O)O[C@H]1C(=O)[C@@]2(C)[C@H]([C@H](OC(=O)c3ccccc3)[C@]3(O)C[C@H](OC(=O)[C@H](O)[C@H](C=C(C)C)NC(=O)C4CCCCC4)C(C)=C1C3(C)C)[C@]1(OC(C)=O)CO[C@@H]1C[C@@H]2O | 18 | 1.3 nM | 10 | – | – | – | – | – | – |
| CCC(=O)O[C@H]1C(=O)[C@@]2(C)[C@H]([C@H](OC(=O)c3cccc(OC)c3)[C@]3(O)C[C@H](OC(=O)[C@H](O)[C@H](C=C(C)C)NC(=O)C4CCCC4)C(C)=C1C3(C)C)[C@]1(OC(C)=O)CO[C@@H]1C[C@@H]2O | 32 | 1.1 nM | 10 | – | – | – | – | – | – |
| CCC(=O)O[C@H]1C(=O)[C@@]2(C)[C@H]([C@H](OC(=O)c3ccccc3)[C@]3(O)C[C@H](OC(=O)[C@H](O)[C@H](CC(C)C)NC(=O)OC(C)(C)C)C(C)=C1C3(C)C)[C@]1(OC(C)=O)CO[C@@H]1C[C@@H]2O | 15 | – | – | – | – | – | – | – | – |
| CCC(=O)O[C@H]1C(=O)[C@@]2(C)[C@H]([C@H](OC(=O)c3cccc(OC)c3)[C@]3(O)C[C@H](OC(=O)[C@H](O)[C@H](CC(C)C)NC(=O)OC4CCCC4)C(C)=C1C3(C)C)[C@]1(OC(C)=O)CO[C@@H]1C[C@@H]2O | 6.9 | 0.76 nM | 3.4 | – | – | – | – | – | – |
| CCC(=O)O[C@H]1C(=O)[C@@]2(C)[C@H]([C@H](OC(=O)c3ccccc3)[C@]3(O)C[C@H](OC(=O)[C@H](O)[C@H](C=C(C)C)NC(=O)C4=CCCC4)C(C)=C1C3(C)C)[C@]1(OC(C)=O)CO[C@@H]1C[C@@H]2O | 15 | 1.2 nM | 12 | – | – | – | – | – | – |
| C=CCC[C@H](NC(=O)OC(C)(C)C)[C@@H](O)C(=O)O[C@H]1C[C@@]2(O)[C@@H](OC(=O)c3cccc(OC)c3)[C@@H]3[C@]4(OC(C)=O)CO[C@@H]4C[C@H](O)[C@@]3(C)C(=O)[C@H](OC(=O)CC)C(=C1C)C2(C)C | 3.9 | 0.9 nM | 6 | – | – | – | – | – | – |
| COc1cccc(C(=O)O[C@H]2[C@@H]3[C@]4(OC(C)=O)CO[C@@H]4C[C@H](O)[C@@]3(C)C(=O)[C@H](OC(=O)c3ccccc3OC)C3=C(C)[C@@H](OC(=O)[C@H](O)[C@H](C=C(C)C)NC(=O)OC(C)(C)C)C[C@]2(O)C3(C)C)c1 | 3 | 0.4 nM | 2.3 | – | – | – | – | – | – |
| C=CC[C@H](NC(=O)OC(C)(C)C)[C@@H](O)C(=O)O[C@H]1C[C@@]2(O)[C@@H](OC(=O)c3cccc(OC)c3)[C@@H]3[C@]4(OC(C)=O)CO[C@@H]4C[C@H](O)[C@@]3(C)C(=O)[C@H](OC(=O)CC)C(=C1C)C2(C)C | 10.9 | 1.2 nM | 7 | – | – | – | – | – | – |
| CCC(=O)O[C@H]1C(=O)[C@@]2(C)[C@H]([C@H](OC(=O)c3ccccc3)[C@]3(O)C[C@H](OC(=O)[C@H](O)[C@H](C=C(C)C)NC(=O)C4CCCC4)C(C)=C1C3(C)C)[C@]1(OC(C)=O)CO[C@@H]1C[C@@H]2O | 20 | 1.1 nM | 17 | – | – | – | – | – | – |
| CCC(=O)O[C@H]1C(=O)[C@@]2(C)[C@H]([C@H](OC(=O)c3cccc(OC)c3)[C@]3(O)C[C@H](OC(=O)[C@H](O)[C@H](C=C(C)C)NC(=O)C4CCC4)C(C)=C1C3(C)C)[C@]1(OC(C)=O)CO[C@@H]1C[C@@H]2O | 11 | 1.6 nM | 9.4 | – | – | – | – | – | – |
| COC(=O)O[C@H]1C(=O)[C@@]2(C)[C@H]([C@H](OC(=O)c3cccc(N=[N+]=[N-])c3)[C@]3(O)C[C@H](OC(=O)[C@H](O)[C@@H](NC(=O)OC(C)(C)C)C(F)(F)F)C(C)=C1C3(C)C)[C@]1(OC(C)=O)CO[C@@H]1C[C@@H]2O | – | 1.09 nM | 3.7 | 6.2 | 0.2 nM | 4 nM | 2.92 nM | 0.4 nM | 0.47 nM |
| CCC(=O)O[C@H]1C(=O)[C@@]2(C)[C@H]([C@H](OC(=O)c3cccc(N=[N+]=[N-])c3)[C@]3(O)C[C@H](OC(=O)[C@H](O)[C@@H](NC(=O)OC(C)(C)C)C(F)(F)F)C(C)=C1C3(C)C)[C@]1(OC(C)=O)CO[C@@H]1C[C@@H]2O | – | 1.09 nM | 2.3 | 4.2 | 0.2 nM | 2.56 nM | 1.61 nM | 0.4 nM | 0.38 nM |
| CC(=O)O[C@H]1C(=O)[C@@]2(C)[C@H]([C@H](OC(=O)c3cccc(N=[N+]=[N-])c3)[C@]3(O)C[C@H](OC(=O)[C@H](O)[C@@H](NC(=O)OC(C)(C)C)C(F)(F)F)C(C)=C1C3(C)C)[C@]1(OC(C)=O)CO[C@@H]1C[C@@H]2O | – | 1.18 nM | 3.4 | 8.2 | 0.2 nM | 4 nM | 3.85 nM | 0.5 nM | 0.47 nM |
| CC(=O)O[C@H]1C(=O)[C@@]2(C)[C@H]([C@H](OC(=O)c3cccc(Cl)c3)[C@]3(O)C[C@H](OC(=O)[C@H](O)[C@@H](NC(=O)OC(C)(C)C)C(F)(F)F)C(C)=C1C3(C)C)[C@]1(OC(C)=O)CO[C@@H]1C[C@@H]2O | – | 0.22 nM | 23 | 13 | 0.5 nM | 4.96 nM | 5.04 nM | 0.85 nM | 0.4 nM |
| COC(=O)O[C@H]1C(=O)[C@@]2(C)[C@H]([C@H](OC(=O)c3cccc(F)c3)[C@]3(O)C[C@H](OC(=O)[C@H](O)[C@@H](NC(=O)OC(C)(C)C)C(F)F)C(C)=C1C3(C)C)[C@]1(OC(C)=O)CO[C@@H]1C[C@@H]2O | – | 0.86 nM | 15 | 19 | 0.3 nM | 12.6 nM | 11.4 nM | 0.43 nM | 0.59 nM |
| COc1cccc(C(=O)O[C@H]2[C@@H]3[C@]4(OC(C)=O)CO[C@@H]4C[C@H](O)[C@@]3(C)C(=O)[C@H](OC(=O)N(C)C)C3=C(C)[C@@H](OC(=O)[C@H](O)[C@@H](NC(=O)OC(C)(C)C)C(F)(F)F)C[C@]2(O)C3(C)C)c1 | – | 0.28 nM | 16 | 3.2 | 0.35 nM | 4.48 nM | 1.84 nM | 0.68 nM | 0.57 nM |
| COC(=O)O[C@H]1C(=O)[C@@]2(C)[C@H]([C@H](OC(=O)c3cccc(Cl)c3)[C@]3(O)C[C@H](OC(=O)[C@H](O)[C@@H](NC(=O)OC(C)(C)C)C(F)F)C(C)=C1C3(C)C)[C@]1(OC(C)=O)CO[C@@H]1C[C@@H]2O | – | 0.13 nM | 14 | 8 | 0.25 nM | 1.82 nM | 2.08 nM | 0.29 nM | 0.26 nM |
| COc1cccc(C(=O)O[C@H]2[C@@H]3[C@]4(OC(C)=O)CO[C@@H]4C[C@H](O)[C@@]3(C)C(=O)[C@H](OC(C)=O)C3=C(C)[C@@H](OC(=O)[C@H](O)[C@@H](NC(=O)OC(C)(C)C)C(F)F)C[C@]2(O)C3(C)C)c1 | – | 0.26 nM | 21 | 12 | 0.38 nM | 5.57 nM | 4.16 nM | 0.52 nM | 0.34 nM |
| CC(=O)O[C@@]12CO[C@@H]1C[C@H](O)[C@@]1(C)C(=O)[C@H](OC(=O)N(C)C)C3=C(C)[C@@H](OC(=O)[C@H](O)[C@@H](NC(=O)OC(C)(C)C)C(F)F)C[C@@](O)([C@@H](OC(=O)c4cccc(Cl)c4)[C@H]21)C3(C)C | – | 0.21 nM | 18 | 9.5 | 0.36 nM | 3.87 nM | 2.96 nM | 0.58 nM | 0.31 nM |
| CCC(=O)O[C@H]1C(=O)[C@@]2(C)[C@H]([C@H](OC(=O)c3cccc(OC)c3)[C@]3(O)C[C@H](OC(=O)[C@H](O)[C@@H](NC(=O)OC(C)(C)C)C(F)(F)F)C(C)=C1C3(C)C)[C@]1(OC(C)=O)CO[C@@H]1C[C@@H]2O | – | 0.45 nM | 9 | 11 | 0.41 nM | 4.24 nM | 2.16 nM | 0.54 nM | 0.19 nM |

From ChEMBL document CHEMBL1152321, “Recent advances in the chemistry and biology of new generation taxoids” (J Nat Prod, 2009)
